Assay results as given in US20260234147A1 (priority 2023, published 2026).
Read-outs that look alike come from different tables or passages of the source.

Assays:
[1] = target: T1, α2A adrenergic receptor (Homo sapiens, UniProt P08913); test: Radioligand binding assay (Eurofins Cerep), [3H]RX 821002 displacement
T1 construct: Eurofins Cerep (contract screening)
T1 sequence (P08913 1-465): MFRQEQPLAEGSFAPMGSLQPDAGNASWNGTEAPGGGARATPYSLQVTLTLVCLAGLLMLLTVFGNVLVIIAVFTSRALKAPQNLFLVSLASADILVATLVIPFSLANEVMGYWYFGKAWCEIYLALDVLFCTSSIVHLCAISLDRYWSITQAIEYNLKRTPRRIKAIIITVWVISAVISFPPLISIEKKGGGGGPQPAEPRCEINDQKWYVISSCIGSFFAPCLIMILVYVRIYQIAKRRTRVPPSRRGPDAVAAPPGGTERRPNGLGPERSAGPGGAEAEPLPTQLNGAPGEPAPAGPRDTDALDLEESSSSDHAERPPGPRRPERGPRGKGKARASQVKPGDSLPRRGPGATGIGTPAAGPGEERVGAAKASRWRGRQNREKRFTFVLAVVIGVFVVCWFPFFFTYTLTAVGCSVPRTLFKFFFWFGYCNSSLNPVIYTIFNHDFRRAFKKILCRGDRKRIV

[2] = target: hDOR (Homo sapiens, UniProt P41143); test: Radioligand binding assay (Eurofins Cerep), [3H]DADLE displacement
Sequence of hDOR (P41143 whole entry): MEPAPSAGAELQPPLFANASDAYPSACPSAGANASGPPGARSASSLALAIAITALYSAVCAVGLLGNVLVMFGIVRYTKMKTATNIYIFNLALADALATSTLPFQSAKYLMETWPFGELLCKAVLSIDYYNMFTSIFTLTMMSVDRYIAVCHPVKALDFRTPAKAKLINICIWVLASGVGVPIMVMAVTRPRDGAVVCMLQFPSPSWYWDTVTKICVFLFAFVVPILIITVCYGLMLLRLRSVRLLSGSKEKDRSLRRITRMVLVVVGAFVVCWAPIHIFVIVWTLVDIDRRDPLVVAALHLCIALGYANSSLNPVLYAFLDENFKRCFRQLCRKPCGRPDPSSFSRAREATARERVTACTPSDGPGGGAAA

[3] = target: hKOR (Homo sapiens, UniProt P41145); test: Radioligand binding assay (Eurofins Cerep), [3H]U69,593 displacement
Sequence of hKOR (P41145 whole entry): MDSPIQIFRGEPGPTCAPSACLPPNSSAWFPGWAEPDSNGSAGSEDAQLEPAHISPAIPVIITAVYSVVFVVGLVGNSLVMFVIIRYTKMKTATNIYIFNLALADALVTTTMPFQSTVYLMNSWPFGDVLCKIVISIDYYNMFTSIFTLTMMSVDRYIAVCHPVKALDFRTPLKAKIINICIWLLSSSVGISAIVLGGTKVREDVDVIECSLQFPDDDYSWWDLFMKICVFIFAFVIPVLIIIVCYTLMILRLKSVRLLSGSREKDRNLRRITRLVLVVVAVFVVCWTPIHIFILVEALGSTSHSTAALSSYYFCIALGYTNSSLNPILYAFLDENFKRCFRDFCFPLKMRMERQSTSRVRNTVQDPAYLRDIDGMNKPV

[4] = target: hMOR (Homo sapiens, UniProt P35372); test: Radioligand binding assay (Eurofins Cerep), [3H]DAMGO displacement
Sequence of hMOR (P35372 whole entry): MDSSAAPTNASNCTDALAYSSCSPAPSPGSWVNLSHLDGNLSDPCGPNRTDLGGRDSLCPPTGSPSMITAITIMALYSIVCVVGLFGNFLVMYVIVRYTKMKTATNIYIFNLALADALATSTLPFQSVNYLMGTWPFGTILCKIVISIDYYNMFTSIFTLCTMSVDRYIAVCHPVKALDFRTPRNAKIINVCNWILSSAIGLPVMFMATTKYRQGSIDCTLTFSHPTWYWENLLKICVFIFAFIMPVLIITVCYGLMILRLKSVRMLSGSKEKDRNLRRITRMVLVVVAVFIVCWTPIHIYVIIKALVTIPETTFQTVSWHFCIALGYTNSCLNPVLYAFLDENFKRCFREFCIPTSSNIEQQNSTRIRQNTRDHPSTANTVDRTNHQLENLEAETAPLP

[5] = Table 3-5, 3 independent experiments, read-out: Ki (nM ± SEM) DOR
[6] = Table 3-5, 3 independent experiments, read-out: Ki (nM ± SEM) KOR
[7] = Table 3-5, 3 independent experiments, read-out: Ki (nM ± SEM) MOR
[8] = Table 3-5, 3 independent experiments, read-out: Ki (nM ± SEM) a2A-ar
[9] = Table 3-6, 3 independent experiments, read-out: Ki (nM ± SEM) DOR
[10] = Table 3-6, 3 independent experiments, read-out: Ki (nM ± SEM) KOR
[11] = Table 3-6, 3 independent experiments, read-out: Ki (nM ± SEM) MOR
[12] = Ki (nM ± SEM) a2A-AR, Table 3-6, 3 independent experiments
[13] = Ki (nM ± SEM) DOR, Table 3-6, 3 independent experiments
[14] = Alpha2A Ki ± SEM (nM), Table B2, mean ± SEM, 3 independent experiments
[15] = Table B2, mean ± SEM, 3 independent experiments, read-out: MOR Ki ± SEM
[16] = Table A4, data summary #2, read-out: DOR Ki ± SEM
[17] = Table A4, data summary #2, read-out: KOR Ki ± SEM
[18] = Table A4, data summary #2, read-out: MOR Ki ± SEM

Compound COC=C(C(=O)OC)C1CCN(Cc2ccccc2)CC1 [Compound 3-50] has a Ki ([1]; Ki (nM ± SEM) a2A-AR, Table 3-4, 3 independent experiments) greater than 10000 nM, a Ki ([2]; Table 3-4, 3 independent experiments, read-out: Ki (nM ± SEM) DOR) greater than 10000 nM and a Ki ([3]; Table 3-4, 3 independent experiments, read-out: Ki (nM ± SEM) KOR) of 5700 ± 558 nM. For the same compound, the Ki ([4]; Table 3-4, 3 independent experiments, read-out: Ki (nM ± SEM) MOR) was greater than 10000 nM.
In the case of COC=C(C(=O)OC)C1CCN(Cc2c[nH]c3ccccc23)CC1 [Compound 3-57], the Ki ([1]; Ki (nM ± SEM) a2A-ar, Table 3-5, 3 independent experiments) is reported as 867 ± 370 nM, the Ki [2, 5] is reported as greater than 10000 nM and the Ki [3, 6] is reported as greater than 10000 nM. It also gave a Ki [4, 7] greater than 10000 nM.
COC(=O)CC1CCN(Cc2c[nH]c3ccccc23)CC1 [Compound 3-58] was tested, and the Ki [1, 8] was 3460 ± 428 nM, the Ki [2, 5] was greater than 10000 nM and the Ki [3, 6] was 791 ± 216 nM. For the same compound, the “SR: Selectivity Ratio (KiMOR/Kiα2A)” value ([4]; Table 3-5) was 0.78 and the Ki [4, 7] was 2700 ± 580 nM.
In the case of COC(=O)CC1CCN(CC(=O)c2c[nH]c3cccc(OC)c23)CC1 [Compound 3-63], the Ki [1, 8] is reported as 6370 ± 1160 nM, the Ki [2, 5] is reported as greater than 10000 nM and the Ki [3, 6] is reported as greater than 10000 nM. It also gave a Ki [4, 7] greater than 10000 nM.
COC(=O)CN1CCN(CCc2c[nH]c3cccc(OC)c23)CC1 [Compound 3-65] gave a Ki ([1]; Table 3-6, 3 independent experiments, read-out: Ki (nM ± SEM) a2A-AR) of 265 ± 64.3 nM, a Ki [2, 9] greater than 10000 nM and a Ki [3, 10] greater than 10000 nM. It also gave a Ki [4, 11] greater than 10000 nM.
COC(=O)CN1CCN(CCc2c[nH]c3ccccc23)CC1 [Compound 3-66] was tested, and the Ki [1, 12] was 9760 ± 4830 nM, the Ki [2, 13] was greater than 10000 nM and the Ki [3, 10] was greater than 10000 nM. For the same compound, the “SR: Selectivity Ratio (KiMOR/Kiα2A)” value ([4]; Table 3-6) was 0.21 and the Ki [4, 11] was 2030 ± 694 nM.
COC(=O)NC1CCN(CCc2c[nH]c3ccccc23)CC1 [Compound 3-68] gave a Ki [1, 12] of 5090 ± 730 nM, a Ki [2, 9] greater than 10000 nM and a Ki [3, 10] greater than 10000 nM. For the same compound, the “SR: Selectivity Ratio (KiMOR/Kiα2A)” value ([4]; Table 3-6) was 0.37 and the Ki [4, 11] was 1890 ± 454 nM.
For COCC(C(=O)OC)C1CCN(CCc2c[nH]c3ccccc23)CC1 (centres unmarked) [Compound 3-71], the Ki [1, 12] was 2760 ± 281 nM, the Ki [2, 13] was greater than 10000 nM and the Ki [3, 10] was greater than 10000 nM. The “SR: Selectivity Ratio (KiMOR/Kiα2A)” value ([4]; Table 3-6) was 2.02 and the Ki [4, 11] was 5580 ± 1700 nM.
In the case of COC(=O)CC1CCN2CCC(O)(c3ccccc3)CC2C1 (centres unmarked) [SG-01-049], the Ki [1, 14] is reported as 80 ± 19 nM and the Ki [4, 15] is reported as 9810 ± 2860 nM.
With COC(=O)C=C1CCN2CCC(O)(c3ccccc3)CC2C1 (centres unmarked) [SG-01-053] the Ki [1, 14] was 95 ± 35 nM and the Ki [4, 15] was greater than 10000 nM.
CC[C@@H]1CN2CCc3c([nH]c4cccc(OC)c34)[C@@H]2C[C@@H]1/C(=C\OC)C(=O)n1cccc1 [SUSM-526] was tested, and the Ki ([1]; Table A4, data summary #2, read-out: Alpha2A Ki ± SEM) was greater than 10000 nM, the Ki [2, 16] was greater than 10000 nM and the Ki ([3]; Table A1, data summary #1, read-out: KOR Ki ± SEM) was 5800 ± 1390 nM. For the same compound, the Ki [3, 17] was greater than 10000 nM, the Ki ([3]; read-out: Ki at hKOR) was 57900 nM and the Ki ([4]; Table A1, data summary #1, read-out: MOR Ki ± SEM) was 2160 ± 941 nM. It also gave a Ki [4, 18] of 719 ± 414 nM and a Ki ([4]; read-out: Ki at hMOR / opioid binding (converted)) of 21600 nM.
In the case of CC[C@@H]1CN2CCc3c([nH]c4cccc(OC)c34)[C@@H]2C[C@@H]1/C(=C\OC)C(=O)N1CCOCC1 [SUSM-527, (E)-2-((2S,3S,12bS)-3-ethyl-8-methoxy-1,2,3,4,6,7,12,12b-octahydroindolo[2,3-a]quinolizin-2-yl)-3-methoxy-1-morpholinoprop-2-en-1-one], the Ki [2, 16] is reported as greater than 10000 nM and the Ki [4, 18] is reported as 1660 ± 427 nM.
Work on CC[C@@H]1CN2CCc3c([nH]c4cccc(OC)c34)[C@@H]2C[C@@H]1/C(=C\OC)C(=O)NCc1ccccc1 [SUSM-560] yielded a Ki [2, 16] greater than 10000 nM and a Ki [4, 18] of 5320 ± 800 nM.
For CC[C@@H]1CN2CCc3c([nH]c4cccc(OC)c34)[C@@H]2C[C@@H]1/C(=C\OC)C(=O)N1CCNCC1 [SUSM-562, (E)-2-((2S,3S,12bS)-3-ethyl-8-methoxy-1,2,3,4,6,7,12,12b-octahydroindolo[2,3-a]quinolizin-2-yl)-3-methoxy-1-(piperazin-1-yl)prop-2-en-1-one], the Ki [2] was greater than 10000 nM and the Ki [4, 18] was 4210 ± 558 nM.
With CC[C@@H]1CN2CCc3c([nH]c4cccc(OC)c34)[C@@H]2C[C@@H]1/C(=C\OC)C(=O)N(C)Cc1ccccc1 [SUSM-563, (E)-N-benzyl-2-((2S,3S,12bS)-3-ethyl-8-methoxy-1,2,3,4,6,7,12,12b-octahydroindolo[2,3-a]quinolizin-2-yl)-3-methoxy-N-methylacrylamide] the Ki [2, 16] was 4520 ± 1990 nM and the Ki [4, 18] was 5750 ± 770 nM.
Compound CC[C@@H]1CN2CCc3c([nH]c4cccc(OC)c34)[C@@H]2C[C@@H]1/C(=C\OC)C(=O)N1CCSCC1 [SUSM-564] has a Ki [2, 16] greater than 10000 nM and a Ki [4, 18] of 134 ± 32 nM.
With [2H]C([2H])([2H])N(C(=O)/C(=C/OC)[C@H]1C[C@H]2c3[nH]c4cccc(OC)c4c3CCN2C[C@H]1CC)C([2H])([2H])[2H] [SUSM-566] the Ki ([1]; Alpha2A Ki ± SEM (nM), Table A4, data summary #2) was 1960 ± 535 nM, the Ki ([2]; DOR Ki ± SEM (nM), Table A4, data summary #2) was 8300 ± 3300 nM and the Ki [3, 17] was 1800 ± 251 nM. It also gave a Ki [4, 18] of 330 ± 28 nM.
